The numbers were not newly measured in patent publication EP1854876A2, “Genetically engineered glutaminase and its use in antiviral and anticancer therapy” (ME MEDICAL ENZYMES AG, priority 1992, dated 1994), which cites them from elsewhere.

The subject of data set [1] is E. coli asparaginase, ineffective form. The settings on record: substrate not given.
The target of data set [2] is E. coli glutaminase B (Escherichia coli, UniProt P0A6W0). The settings on record: described as high; substrate not given.
For data set [3], the system named is known mammalian glutaminase enzymes. The note with it: described as high; substrate not given.
Data set [4] concerns the target E. coli glutaminase A (Escherichia coli, UniProt P77454). The settings on record: described as high; substrate not given.
For data set [5], the target named is Pseudomonas 7A glutaminase-asparaginase (Pseudomonas sp., UniProt P10182). The settings on record: described as low.

Where only a bound is given, the exact number is not on record here.

E. coli glutaminase A, sequence (P77454 whole entry): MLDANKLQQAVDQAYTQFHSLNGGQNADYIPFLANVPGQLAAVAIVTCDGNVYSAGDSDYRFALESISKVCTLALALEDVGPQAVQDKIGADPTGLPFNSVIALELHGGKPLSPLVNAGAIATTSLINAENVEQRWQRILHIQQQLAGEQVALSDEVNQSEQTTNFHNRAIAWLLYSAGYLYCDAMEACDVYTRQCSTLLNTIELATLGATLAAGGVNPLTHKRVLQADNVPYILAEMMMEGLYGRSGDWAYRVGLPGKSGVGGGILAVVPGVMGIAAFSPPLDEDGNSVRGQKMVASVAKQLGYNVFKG
Pseudomonas 7A glutaminase-asparaginase, sequence (P10182 whole entry): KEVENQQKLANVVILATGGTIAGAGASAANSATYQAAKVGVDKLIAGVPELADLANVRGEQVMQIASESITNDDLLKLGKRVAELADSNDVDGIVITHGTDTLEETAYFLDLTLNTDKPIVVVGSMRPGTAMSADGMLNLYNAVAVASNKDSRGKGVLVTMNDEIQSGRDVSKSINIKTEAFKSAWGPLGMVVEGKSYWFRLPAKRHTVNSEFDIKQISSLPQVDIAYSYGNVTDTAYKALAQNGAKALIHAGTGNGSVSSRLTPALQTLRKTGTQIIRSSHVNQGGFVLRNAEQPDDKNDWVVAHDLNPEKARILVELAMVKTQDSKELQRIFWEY
E. coli glutaminase B, sequence (P0A6W0 whole entry): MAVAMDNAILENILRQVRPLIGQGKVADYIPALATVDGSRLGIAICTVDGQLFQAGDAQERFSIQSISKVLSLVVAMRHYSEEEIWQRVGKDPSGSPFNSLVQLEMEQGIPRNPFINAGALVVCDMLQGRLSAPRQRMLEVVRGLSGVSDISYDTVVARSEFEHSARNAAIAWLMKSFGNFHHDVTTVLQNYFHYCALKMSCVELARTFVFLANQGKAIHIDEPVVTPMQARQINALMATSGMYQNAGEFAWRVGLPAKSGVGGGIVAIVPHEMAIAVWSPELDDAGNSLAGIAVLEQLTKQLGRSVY

Usually Km stands for the substrate concentration at which the rate is half of its maximum. Consider `NC(=O)C[C@H](N)C(=O)O` [asparagine], for which the Km in data set [1] was greater than 1000 µM.
As for `NC(=O)CC[C@H](N)C(=O)O` [glutamine], the KM entry in data set [2], in data set [3] and in data set [4] was “millimolar range” throughout. The KM for glutamine entry in data set [5] was “micromolar range”.
